Test results from PubChem BioAssay (NCI).
“And” between values parts separate entries of the source, which are not always exact repeats. Identical values can stand only once.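 All cell lines were grown in 96-well plates and treated with compound for 48 hours. GI50 is the concentration that inhibits growth by half. TGI is the concentration that stops growth completely.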

What was measured:
Test in all cases: DTP human tumour cell line panel, 48 h
SN12C renal = system: SN12C renal
HT29 colon = system: HT29 colon
UACC-62 melanoma = system: UACC-62 melanoma
T-47D breast = system: T-47D breast
OVCAR-4 ovarian = system: OVCAR-4 ovarian
EKVX NSCLC = system: EKVX NSCLC
HOP-62 NSCLC = system: HOP-62 NSCLC
OVCAR-5 ovarian = system: OVCAR-5 ovarian
A498 renal = system: A498 renal
UO-31 renal = system: UO-31 renal
MDA-MB-231 breast = system: MDA-MB-231 breast
OVCAR-8 ovarian = system: OVCAR-8 ovarian
K-562 leukemia = system: K-562 leukemia
MALME-3M melanoma = system: MALME-3M melanoma
RXF 393 renal = system: RXF 393 renal
SF-539 CNS = system: SF-539 CNS
NCI-H522 lung = system: NCI-H522 lung
786-0 renal = system: 786-0 renal
MDA-MB-468 breast = system: MDA-MB-468 breast
HCC-2998 colon = system: HCC-2998 colon
HCT-15 colon = system: HCT-15 colon
NCI-H23 lung = system: NCI-H23 lung
MCF7 breast = system: MCF7 breast
DU-145 prostate = system: DU-145 prostate
MOLT-4 leukemia = system: MOLT-4 leukemia
CAKI-1 renal = system: CAKI-1 renal
MDA-MB-435 = system: MDA-MB-435
UACC-257 melanoma = system: UACC-257 melanoma
SNB-75 CNS = system: SNB-75 CNS
LOX IMVI melanoma = system: LOX IMVI melanoma
IGROV1 ovarian = system: IGROV1 ovarian
M14 melanoma = system: M14 melanoma
NCI-H460 lung = system: NCI-H460 lung
ACHN renal = system: ACHN renal
TK-10 renal = system: TK-10 renal
SR leukemia = system: SR leukemia
SK-MEL-28 melanoma = system: SK-MEL-28 melanoma
OVCAR-3 ovarian = system: OVCAR-3 ovarian
SK-MEL-5 melanoma = system: SK-MEL-5 melanoma
HS 578T breast = system: HS 578T breast
RPMI-8226 leukemia = system: RPMI-8226 leukemia
U251 CNS = system: U251 CNS
SK-MEL-2 melanoma = system: SK-MEL-2 melanoma
HL-60(TB) leukemia = system: HL-60(TB) leukemia
SF-268 CNS = system: SF-268 CNS
KM12 colon = system: KM12 colon
SK-OV-3 ovarian = system: SK-OV-3 ovarian
SNB-19 CNS = system: SNB-19 CNS
SW-620 colon = system: SW-620 colon
COLO 205 colon = system: COLO 205 colon
BT-549 breast = system: BT-549 breast
CCRF-CEM leukemia = system: CCRF-CEM leukemia
SF-295 CNS = system: SF-295 CNS
A549 NSCLC = system: A549 NSCLC
NCI-H226 lung = system: NCI-H226 lung
PC-3 prostate = system: PC-3 prostate
HCT-116 colon = system: HCT-116 colon
HOP-92 NSCLC = system: HOP-92 NSCLC

`N#Cc1c(-c2ccc(Br)cc2)nc2n[nH]c(-c3ccc(Br)cc3)c2c1-c1ccc(C(F)(F)F)cc1` was tested, and the GI50 (SN12C renal) was 3.3 µM, the TGI (SN12C renal) was 15.8 µM and the GI50 (HT29 colon) was 3.84 µM. It also gave a TGI (HT29 colon) of 35.7 µM, a GI50 (UACC-62 melanoma) of 2.61 µM and a TGI (UACC-62 melanoma) of 13.3 µM. The GI50 (T-47D breast) was 3.39 µM, the TGI (T-47D breast) was 93.9 µM and the GI50 (OVCAR-4 ovarian) was 4.02 µM. For the same compound, the TGI (OVCAR-4 ovarian) was 25.6 µM, the GI50 (EKVX NSCLC) was 3.05 µM and the TGI (EKVX NSCLC) was 27.3 µM. It also gave a GI50 (HOP-62 NSCLC) of 14.1 µM, a TGI (HOP-62 NSCLC) of 44.7 µM and a GI50 (OVCAR-5 ovarian) of 7.58 µM. The TGI (OVCAR-5 ovarian) was 26.9 µM, the GI50 (A498 renal) was 15.1 µM and the TGI (A498 renal) was 45.2 µM. It also gave a GI50 (UO-31 renal) of 2.07 µM, a TGI (UO-31 renal) of 14.9 µM and a GI50 (MDA-MB-231 breast) of 5.37 µM. For the same compound, the TGI (MDA-MB-231 breast) was 19.3 µM, the GI50 (OVCAR-8 ovarian) was 12.5 µM and the TGI (OVCAR-8 ovarian) was over 100 µM. It also gave a GI50 (K-562 leukemia) of 2.61 µM, a TGI (K-562 leukemia) of 10.3 µM and a GI50 (MALME-3M melanoma) of 2.34 µM. For the same compound, the TGI (MALME-3M melanoma) was 6.47 µM, the GI50 (RXF 393 renal) was 6.93 µM and the TGI (RXF 393 renal) was 28.4 µM. The GI50 (SF-539 CNS) was 5.35 µM, the TGI (SF-539 CNS) was 22.2 µM and the GI50 (NCI-H522 lung) was 3.78 µM. For the same compound, the TGI (NCI-H522 lung) was 36.9 µM, the GI50 (786-0 renal) was 7.85 µM and the TGI (786-0 renal) was 28.1 µM. The GI50 (MDA-MB-468 breast) was 3.44 µM, the TGI (MDA-MB-468 breast) was 15.5 µM and the GI50 (HCC-2998 colon) was 5.27 µM. For the same compound, the TGI (HCC-2998 colon) was 27.1 µM, the GI50 (HCT-15 colon) was 3.29 µM and the TGI (HCT-15 colon) was 19.1 µM. It also gave a GI50 (NCI-H23 lung) of 4.31 µM, a TGI (NCI-H23 lung) of over 100 µM and a GI50 (MCF7 breast) of 3.13 µM. For the same compound, the TGI (MCF7 breast) was 24 µM, the GI50 (DU-145 prostate) was 5.45 µM and the TGI (DU-145 prostate) was over 100 µM. The GI50 (MOLT-4 leukemia) was 1.89 µM, the TGI (MOLT-4 leukemia) was 6.02 µM and the GI50 (CAKI-1 renal) was 4.01 µM. For the same compound, the TGI (CAKI-1 renal) was 24.2 µM, the GI50 (MDA-MB-435) was 4.03 µM and the TGI (MDA-MB-435) was 21.4 µM. The GI50 (UACC-257 melanoma) was 13.3 µM, the TGI (UACC-257 melanoma) was 62.6 µM and the GI50 (SNB-75 CNS) was 12.6 µM. For the same compound, the TGI (SNB-75 CNS) was 43.9 µM, the GI50 (LOX IMVI melanoma) was 3.45 µM and the TGI (LOX IMVI melanoma) was over 100 µM. It also gave a GI50 (IGROV1 ovarian) of 2.71 µM, a TGI (IGROV1 ovarian) of 15.4 µM and a GI50 (M14 melanoma) of 5.24 µM. For the same compound, the TGI (M14 melanoma) was 23.7 µM, the GI50 (NCI-H460 lung) was 3.62 µM and the TGI (NCI-H460 lung) was 19.4 µM. For the same compound, the GI50 (ACHN renal) was 3.26 µM, the TGI (ACHN renal) was 14.3 µM and the GI50 (TK-10 renal) was 19.7 µM. The TGI (TK-10 renal) was 58.3 µM, the GI50 (SR leukemia) was 2.5 µM and the TGI (SR leukemia) was 7.71 µM. The GI50 (SK-MEL-28 melanoma) was 6.79 µM, the TGI (SK-MEL-28 melanoma) was 26.3 µM and the GI50 (OVCAR-3 ovarian) was 5.32 µM. For the same compound, the TGI (OVCAR-3 ovarian) was 34.3 µM, the GI50 (SK-MEL-5 melanoma) was 3.29 µM and the TGI (SK-MEL-5 melanoma) was 10.8 µM. It also gave a GI50 (HS 578T breast) of 10.2 µM, a TGI (HS 578T breast) of 49.1 µM and a GI50 (RPMI-8226 leukemia) of 2.35 µM. It also gave a TGI (RPMI-8226 leukemia) of 10.4 µM, a GI50 (U251 CNS) of 6.23 µM and a TGI (U251 CNS) of 62.4 µM. For the same compound, the GI50 (SK-MEL-2 melanoma) was 10.1 µM, the TGI (SK-MEL-2 melanoma) was 23.6 µM and the GI50 (HL-60(TB) leukemia) was 2.03 µM. The TGI (HL-60(TB) leukemia) was 6.13 µM, the GI50 (SF-268 CNS) was 7.91 µM and the TGI (SF-268 CNS) was over 100 µM. The GI50 (KM12 colon) was 4.4 µM, the TGI (KM12 colon) was 26.8 µM and the GI50 (SK-OV-3 ovarian) was 14.2 µM. For the same compound, the TGI (SK-OV-3 ovarian) was 69.1 µM, the GI50 (SNB-19 CNS) was 4.53 µM and the TGI (SNB-19 CNS) was 33.3 µM. For the same compound, the GI50 (SW-620 colon) was 4.39 µM, the TGI (SW-620 colon) was over 100 µM and the GI50 (COLO 205 colon) was 3.88 µM. For the same compound, the TGI (COLO 205 colon) was 15.9 µM, the GI50 (BT-549 breast) was 2.56 µM and the TGI (BT-549 breast) was 8.18 µM. It also gave a GI50 (CCRF-CEM leukemia) of 3.05 µM, a TGI (CCRF-CEM leukemia) of 13 µM and a GI50 (SF-295 CNS) of 2.61 µM. For the same compound, the TGI (SF-295 CNS) was 10.1 µM, the GI50 (A549 NSCLC) was 4.62 µM and the TGI (A549 NSCLC) was over 100 µM. For the same compound, the GI50 (NCI-H226 lung) was 3.07 µM, the TGI (NCI-H226 lung) was 18 µM and the GI50 (PC-3 prostate) was 1.95 µM. For the same compound, the TGI (PC-3 prostate) was 12.4 µM, the GI50 (HCT-116 colon) was 3.42 µM and the TGI (HCT-116 colon) was 73.2 µM. For the same compound, the GI50 (HOP-92 NSCLC) was 1.65 µM and the TGI (HOP-92 NSCLC) was 4.73 µM.
With `CCCCCc1c(C)[nH]c(/C=C2\N=C(c3ccc[nH]3)C=C2Oc2ccc(OC)cc2)c1C` the GI50 (MDA-MB-468 breast) was 0.0655 µM and 0.0271 µM and the TGI (MDA-MB-468 breast) was 2.04 µM and 0.288 µM.
